Laboratory results published in patent US5043335A, “Indolocarbazoles and the use thereof” (Godecke Aktiengesellschaft, priority 1989, dated 1991).

Columns and labels:
[1] = target: T1, cAMP-dependent protein kinase (catalytic subunit) (Homo sapiens, UniProt P17612); assay: cAMP-dependent protein kinase (A kinase) test, 32P-phosphate incorporation into histone; assay type: biochemical
T1 construct: purchased
Protocol: (§1) The determination the inhibition of the cAMP- and of the cGMP-dependent protein kinase took place according to the test description below.
cAMP-dependent protein kinase: The measurement of the activity takes place with the commercially available catalytic subunits of the enzyme. The incorporation of phosphorus 32-labeled phosphate into histone is thereby measured. A reaction batch of 200 μL contains the following components: 50 mM PIPES-NaOH (pH 7.5), 10 mM magnesium chloride, 1 mM DTT, 40 μM ATP, as well as 50 μg histone H-2B. The test is carried out as in the case of G kinase. The reaction is thereby started by the addition of 6 units of the catalytic subunit of the cAMP-dependent protein kinase.

[2] = target: T2, cGMP-dependent protein kinase (Bos taurus, UniProt P00516); assay: cGMP-dependent protein kinase (G kinase) test, 32P-phosphate incorporation into histone; assay type: biochemical, bovine
T2 construct: The enzyme was obtained from bovine lung tissue and purified; from tissue; host or cells: bovine lung
T2 sequence (P00516 1-671): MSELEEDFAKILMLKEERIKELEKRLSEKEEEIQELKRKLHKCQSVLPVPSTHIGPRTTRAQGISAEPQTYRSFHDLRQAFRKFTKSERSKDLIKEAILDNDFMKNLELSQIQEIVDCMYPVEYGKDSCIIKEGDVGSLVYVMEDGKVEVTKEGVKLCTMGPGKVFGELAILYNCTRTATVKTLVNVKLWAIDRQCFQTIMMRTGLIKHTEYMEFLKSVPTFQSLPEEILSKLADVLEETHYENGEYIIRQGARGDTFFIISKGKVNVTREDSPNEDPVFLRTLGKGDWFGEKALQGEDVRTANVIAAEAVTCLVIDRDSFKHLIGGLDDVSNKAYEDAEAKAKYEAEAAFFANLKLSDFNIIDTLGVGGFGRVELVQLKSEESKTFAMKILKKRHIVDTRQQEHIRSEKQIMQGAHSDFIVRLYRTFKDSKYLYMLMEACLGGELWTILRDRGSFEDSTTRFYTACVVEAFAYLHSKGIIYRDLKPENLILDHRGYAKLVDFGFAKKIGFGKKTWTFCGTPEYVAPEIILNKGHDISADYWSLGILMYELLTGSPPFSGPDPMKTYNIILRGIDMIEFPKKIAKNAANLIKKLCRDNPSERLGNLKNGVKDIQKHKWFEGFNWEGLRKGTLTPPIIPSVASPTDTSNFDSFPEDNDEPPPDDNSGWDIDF
Protocol: as §1
cGMP-dependent protein kinase: The enzyme was obtained from bovine lung tissue and purified and its activity determined via the incorporation of phosphorus 32-labeled phosphate into histone. The following components are contained in a test batch of 200 μL: 20 mM Tris-HCl (pH 7.4), 5 mM magnesium chloride, 1 mM DTT, 10 μM ATP, […], 40 μg BSA, 2% glycerol, as well as 10 μg histone II-A and possibly the substance to be investigated. […] After incubating for 5 minutes at 30° C., the reaction is stopped by the addition of 10% trichloroacetic acid and the samples then filtered off over a nitrocellulose filter. The phosphate incorporation is determined by Cerenkov counting in a scintillation counter and the percentage inhibition calculated therefrom.

protein kinase C = assay: Inhibition of protein kinase C activated with phosphatidylserine and diacylglycerol (in vitro enzyme assay); assay type: biochemical; settings: for IC50: activated with phosphatidylserine and diacylglycerol, read-out: Inhibiton (IC50) C-Kinase

| SMILES | IC50 [1] [nM] | Ratio IC50 kinase / IC50 C-Kinase, A/C ([1]; A-kinase versus C-kinase) | IC50 [2] [nM] | Ratio IC50 kinase / IC50 C-Kinase, G/C ([2]; G-kinase versus C-kinase) | IC50 (protein kinase C) [nM] | inhibition of protein kinase C at a single concentration (protein kinase C; concentration of 10^-5 M, same conditions of the in vitro enzyme assay) |
| --- | --- | --- | --- | --- | --- | --- |
| O=C1NC(=O)c2c1c1c3ccccc3n3c1c1c2c2ccccc2n1C1CCC3O1 [I, 9,10,11,12-tetrahydro-9,l2-epoxy-1H-diindolo[1,2,3-fg: 3',2',1',kl]pyrrolo[3,4-i][1,6]benzodiazocine-1,3(2H)-dione] | 5500 | 196 | 520 | 19 | 28 | – |
| O=C1c2c(c3c4ccccc4n4c3c3c2c2ccccc2n3C2CCC4O2)C(=O)N1Cc1ccccc1 [III] | – | – | – | – | > 10000 | does not display a significant inhibition |
